From patent publication US4122184A, “Benzimidazole insecticides” (priority 1977, dated 1978)
Several values for one entry are separate records, joined by “and”; a condition that tells them apart may be missing. Equal values may be shown once.

Key:
Squash Bug Adults = assay: Field trial, contact poison test; type: in vivo; design: key: 0-9 rating: 0 = 0-10% mortality, 9 = 91-100% mortality
In short: (§1)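 Infested host plants were kept in water-filled bottles with cellucotton around the stem and sprayed with different compound concentrations by atomizer at 10 psi from arm's length. Mortality was read at 24, 48 and 72 h on a 0–9 scale (0 = 0-10%, 9 = 91-100% mortality), averaged per concentration.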

Bean Leaf Beetle [1] = assay: Field trial, contact poison test; type: in vivo
In short: as §1

[2] = tested on: Red-Legged Grasshopper Adults; assay: Field trial, contact poison test; type: in vivo
In short: as §1

[3] = tested on: Striped Cucumber Beetle Adults; assay: Field trial, stomach poison test; type: in vivo; design: key: mortality rating on a 0 to 9 scale
In short: (§2)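 Stomach-poison feeding test on leaves taken from the infested plant and treated by atomizer spraying at 10 psi or by dipping, then air-dried. Dishes hold five or ten insects, with one or two replicates per rate; reported values average mortality on a 0 to 9 rating scale, read at 24, 48 and 72 hours.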

Mexican Bean Beetle = Mexican Bean Beetle Test; type: in vivo, Epilachna varivestis (Coleoptera); conditions: 48 h
Procedure: Cuttings of four six-day old Bountiful snap bean plants containing two leaves with approximately 5 square inches of leaf surface, are placed in water. The leaves are sprayed to wetting with about 5-10 ml. of a formulation containing a pre-determined level of the test compound. Half of the formulation is sprayed on the top surface and half on the bottom surface of the leaf using a DeVilbiss atomizer at 10 psi held at a distance of about 18 inches from the leaf. After the leaves have dried, they are cut from the stem and placed separately in petri dishes. Ten third instar, nonmolting Mexican bean beetle larvae grown on Bountiful snap beans are placed on each leaf. Controls consist of two leaves sprayed with 5 ml. of a 500 ppm malathion formulation (reference standard), two leaves sprayed with the formulation without the active ingredient and two leaves are held as untreated controls. After 48 hours, a mortality count is made and the amount of feeding noted. Moribund larvae are counted as dead.

Bean Leaf Beetle [4] = assay: Field trial, stomach poison test; type: in vivo
In short: as §2

Oriental Cockroach = assay: Oriental Roach Test; type: in vivo, Blatta orientalis (Orthoptera); conditions: 24 h
In short: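 Ten late-instar (3-4 month) nymphs per cage, held at 70°-80° F., sprayed with 5 ml of insecticide formulation at a specified amount. Cockroaches kept unfed and unwatered; mortality counted 24 hours post-spray, with insects staying on the cage bottom after light shaking scored dead.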

Milkweed Bug = Milkweed Bug Test; type: in vivo, Oncopeltis fasciatus (Hemiptera); conditions: 48 h
In short: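 Ten chilled adult milkweed bugs per cage sprayed with 5 ml test formulation at 10 psi, then fed and watered. Mortality, counting moribund as dead, scored 48 h after spraying; 500 ppm malathion as reference, unsprayed cages as controls.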

[5] = tested on: Southern Corn Rootworm Adults; assay: Field trial, contact poison test; type: in vivo
In short: as §1

Yellow Mealworm Larvae = assay: Field trial, topical application; type: in vivo; design: key: 0 = 0-10% mortality, 9 = 91-100% mortality (0-9 scale)
In short: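 1 μL benzimidazole solution of set microgram content applied topically to larvae or adults. Mortality read at 24, 48 and 72 h where applicable, rated 0-9 (0 = 0-10%, 9 = 91-100%); values are average mortality per concentration.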

[6] = tested on: Southern Corn Rootworm Adults; assay: Field trial, stomach poison test; type: in vivo; design: key: mortality rating on a 0 to 9 scale
In short: as §2

Two-spotted Spider Mite = Two-spotted Spider Mite test; type: in vivo, Tetranychus urticae (Acarina); conditions: 48 h
Procedure: The procedure in this test is the same as that in the previous aphid test, except that about 100 two-spotted spider mites from a stock colony raised on squash plants are transferred to a cut squash cotyledon. The mortality is estimated 48 hours after spraying. The same rating scale is used.

For `CC(C)OC(=O)n1c(C(F)(F)F)nc2c([N+](=O)[O-])cc(C(F)(F)F)cc21` [I, isopropyl 2,6-bis(trifluoromethyl)-4-nitro-1-benzimidazolecarboxylate], the average mortality rating (Squash Bug Adults; 125 ppm) was 3, the average mortality rating (Squash Bug Adults; 250 ppm) was 1 and the average mortality rating (Squash Bug Adults; 500 ppm) was 0 (0-10 percent). For the same compound, the average mortality rating (Squash Bug Adults; 750 ppm) was 0 (0-10 percent), the average mortality rating (Bean Leaf Beetle [1]; 25 ppm) was 0 (0-10 percent) and the average mortality rating (Bean Leaf Beetle [1]; 50 ppm) was 0 (0-10 percent). For the same compound, the average mortality rating (Bean Leaf Beetle [1]; 100 ppm) was 4, the average mortality rating ([2]; 10 ppm) was 2 and the average mortality rating ([2]; 25 ppm) was 3. It also gave an average mortality rating ([2]; 50 ppm) of 5, an average mortality rating ([3]; 10 ppm) of 2 and an average mortality rating ([3]; 25 ppm) of 3. The average mortality rating ([3]; 50 ppm) was 6, the average mortality rating ([3]; 100 ppm) was 9 (91-100 percent mortality) and the mortality rating (Mexican Bean Beetle; 25 ppm) was 6.5. The average mortality rating (Bean Leaf Beetle [4]; 10 ppm) was 0 (0-10 percent), the average mortality rating (Bean Leaf Beetle [4]; 25 ppm) was 1 and the average mortality rating (Bean Leaf Beetle [4]; 50 ppm) was 3. It also gave a mortality rating (Oriental Cockroach; 100 ppm) of 1.5, a mortality rating (Oriental Cockroach; 250 ppm) of 5.5 and a mortality rating (Oriental Cockroach; 500 ppm) of 6.5.
With “mixture of methyl 2,6-bis(trifluoromethyl)-4-nitro-1-benzimidazolecarboxylate and methyl 2,5-bis(trifluoromethyl)-7-nitro-1-benzimidazolecarboxylate” the average mortality rating (Squash Bug Adults; 125 ppm) was 0 (0-10 percent), the average mortality rating (Squash Bug Adults; 250 ppm) was 0 (0-10 percent) and the average mortality rating (Squash Bug Adults; 500 ppm) was 2. The average mortality rating (Squash Bug Adults; 750 ppm) was 3, the mortality rating (Milkweed Bug; 25 ppm) was 5 (51-60) and the mortality rating (Milkweed Bug; 100 ppm) was 8 (81-90). For the same compound, the mortality rating (Milkweed Bug; 250 ppm) was 9 (91-100), the mortality rating (Milkweed Bug; 500 ppm) was 9 (91-100) and the mortality rating (Milkweed Bug; 1000 ppm) was 9 (91-100). For the same compound, the average mortality rating (Bean Leaf Beetle [1]; 25 ppm) was 0 (0-10 percent), the average mortality rating (Bean Leaf Beetle [1]; 50 ppm) was 0 (0-10 percent) and the average mortality rating (Bean Leaf Beetle [1]; 100 ppm) was 1. The average mortality rating ([5]; 25 ppm) was 5 and 3, the average mortality rating ([5]; 100 ppm) was 9 (91-100 percent mortality) and the average mortality rating (Yellow Mealworm Larvae; 0.03 μg/μl) was 2. The average mortality rating (Yellow Mealworm Larvae; 0.07 μg/μl) was 3, the average mortality rating (Yellow Mealworm Larvae; 0.15 μg/μl) was 6 and the average mortality rating ([3]; 10 ppm) was 2. For the same compound, the average mortality rating ([3]; 25 ppm) was 0 (0-10 percent), the average mortality rating ([3]; 50 ppm) was 5 and the average mortality rating ([3]; 100 ppm) was 9 (91-100 percent mortality). For the same compound, the average mortality rating ([6]; 25 ppm) was 3 and 4, the average mortality rating ([6]; 50 ppm) was 4 and the average mortality rating ([6]; 100 ppm) was 6. For the same compound, the mortality rating (Mexican Bean Beetle; 5 ppm) was 0 (0-10), the mortality rating (Mexican Bean Beetle; 10 ppm) was 9 (91-100) and the mortality rating (Mexican Bean Beetle; 25 ppm) was 9 (91-100). The mortality rating (Mexican Bean Beetle; 50 ppm) was 9 (91-100), the mortality rating (Mexican Bean Beetle; 100 ppm) was 9 (91-100) and the mortality rating (Mexican Bean Beetle; 250 ppm) was 9 (91-100). The mortality rating (Mexican Bean Beetle; 500 ppm) was 9 (91-100), the mortality rating (Mexican Bean Beetle; 1000 ppm) was 9 (91-100) and the average mortality rating (Bean Leaf Beetle [4]; 10 ppm) was 1. The average mortality rating (Bean Leaf Beetle [4]; 25 ppm) was 0 (0-10 percent), the average mortality rating (Bean Leaf Beetle [4]; 50 ppm) was 1 and the mortality rating (Two-spotted Spider Mite; 10 ppm) was 3 (31-40). The mortality rating (Two-spotted Spider Mite; 25 ppm) was 4 (41-50), the mortality rating (Two-spotted Spider Mite; 50 ppm) was 9 (91-100) and the mortality rating (Two-spotted Spider Mite; 100 ppm) was 6 (61-70). For the same compound, the mortality rating (Two-spotted Spider Mite; 250 ppm) was 9 (91-100), the mortality rating (Two-spotted Spider Mite; 500 ppm) was 9 (91-100) and the mortality rating (Two-spotted Spider Mite; 1000 ppm) was 9 (91-100). For the same compound, the mortality rating (Oriental Cockroach; 50 ppm) was 0 (0-10), the mortality rating (Oriental Cockroach; 100 ppm) was 0 (0-10) and the mortality rating (Oriental Cockroach; 250 ppm) was 5.5. The mortality rating (Oriental Cockroach; 500 ppm) was 9 (91-100) and the mortality rating (Oriental Cockroach; 1000 ppm) was 9 (91-100).
With `O=[N+]([O-])c1cc(C(F)(F)F)cc2nc(C(F)(F)F)[nH]c12` [A, 2,6-bis(trifluoromethyl)-4-nitrobenzimidazole] the average mortality rating (Squash Bug Adults; 125 ppm) was 0 (0-10 percent), the average mortality rating (Squash Bug Adults; 250 ppm) was 6 and the average mortality rating (Squash Bug Adults; 500 ppm) was 9 (91-100 percent mortality). The average mortality rating (Squash Bug Adults; 750 ppm) was 9 (91-100 percent mortality), the average mortality rating (Bean Leaf Beetle [1]; 25 ppm) was 0 (0-10 percent) and the average mortality rating (Bean Leaf Beetle [1]; 50 ppm) was 0 (0-10 percent). For the same compound, the average mortality rating (Bean Leaf Beetle [1]; 100 ppm) was 0 (0-10 percent), the average mortality rating ([2]; 10 ppm) was 3 and the average mortality rating ([2]; 25 ppm) was 4. For the same compound, the average mortality rating ([2]; 50 ppm) was 4, the average mortality rating ([5]; 25 ppm) was 4 and the average mortality rating ([5]; 50 ppm) was 6. For the same compound, the average mortality rating ([5]; 100 ppm) was 8, the average mortality rating (Yellow Mealworm Larvae; 0.03 μg/μl) was 3 and the average mortality rating (Yellow Mealworm Larvae; 0.07 μg/μl) was 5. The average mortality rating (Yellow Mealworm Larvae; 0.15 μg/μl) was 5, the average mortality rating ([3]; 10 ppm) was 1 and the average mortality rating ([3]; 25 ppm) was 3. For the same compound, the average mortality rating ([3]; 50 ppm) was 6, the average mortality rating ([3]; 100 ppm) was 5 and the average mortality rating ([6]; 25 ppm) was 4. For the same compound, the average mortality rating ([6]; 50 ppm) was 6, the average mortality rating ([6]; 100 ppm) was 7 and the average mortality rating (Bean Leaf Beetle [4]; 10 ppm) was 0 (0-10 percent). The average mortality rating (Bean Leaf Beetle [4]; 25 ppm) was 0 (0-10 percent) and the average mortality rating (Bean Leaf Beetle [4]; 50 ppm) was 1.
With “mixture of N,N-dimethyl-4-nitro-2,6-bis(trifluoromethyl)thio-1-benzimidazolecarboxamide and N,N-dimethyl-7-nitro-2,5-bis(trifluoromethyl)thio-1-benzimidazolecarboxamide [P]” the mortality rating (Milkweed Bug; 10 ppm) was 0 (0-10), the mortality rating (Milkweed Bug; 25 ppm) was 0 (0-10) and the mortality rating (Milkweed Bug; 50 ppm) was 3.5. The mortality rating (Milkweed Bug; 100 ppm) was 4.5, the mortality rating (Milkweed Bug; 250 ppm) was 4 (41-50) and the mortality rating (Milkweed Bug; 500 ppm) was 4 (41-50). For the same compound, the mortality rating (Milkweed Bug; 1000 ppm) was 2 (21-30), the average mortality rating ([3]; 10 ppm) was 5 and the average mortality rating ([3]; 25 ppm) was 4. The average mortality rating ([3]; 50 ppm) was 5, the average mortality rating ([3]; 100 ppm) was 9 (91-100 percent mortality) and the mortality rating (Mexican Bean Beetle; 10 ppm) was 0 (0-10). For the same compound, the mortality rating (Mexican Bean Beetle; 25 ppm) was 0 (0-10), the mortality rating (Mexican Bean Beetle; 50 ppm) was 4.5 and the mortality rating (Mexican Bean Beetle; 100 ppm) was 7 (71-80). The mortality rating (Mexican Bean Beetle; 250 ppm) was 7.5, the mortality rating (Mexican Bean Beetle; 500 ppm) was 8.5 and the mortality rating (Mexican Bean Beetle; 1000 ppm) was 9 (91-100). For the same compound, the mortality rating (Two-spotted Spider Mite; 1 ppm) was 3 (31-40), the mortality rating (Two-spotted Spider Mite; 5 ppm) was 4 (41-50) and the mortality rating (Two-spotted Spider Mite; 10 ppm) was 4 (41-50). For the same compound, the mortality rating (Two-spotted Spider Mite; 25 ppm) was 6 (61-70), the mortality rating (Two-spotted Spider Mite; 50 ppm) was 7.0 and the mortality rating (Two-spotted Spider Mite; 100 ppm) was 7.5. The mortality rating (Two-spotted Spider Mite; 250 ppm) was 8.5, the mortality rating (Two-spotted Spider Mite; 500 ppm) was 9 (91-100) and the mortality rating (Two-spotted Spider Mite; 1000 ppm) was 9 (91-100). For the same compound, the mortality rating (Oriental Cockroach; 50 ppm) was 0 (0-10), the mortality rating (Oriental Cockroach; 100 ppm) was 2.5 and the mortality rating (Oriental Cockroach; 250 ppm) was 5.5. For the same compound, the mortality rating (Oriental Cockroach; 500 ppm) was 9 (91-100) and the mortality rating (Oriental Cockroach; 1000 ppm) was 8 (81-90).
